The record followed here is patent US10213449B2, “Compositions and methods for treating medulloblastoma” (The Board of Trustees of the Leland Stanford Junior …, priority 2016, dated 2019).

Test [1] relates to Hh signaling in GNPs. The experiment in a line: Transcript levels in GNPs following Hh stimulation. It is filed as cell-based, mouse.
Test [2] deals with Brd4 occupancy at Gli1 and Gli2 promoters. The experiment in a line: Brd4 ChIP-qPCR in NIH3T3s stimulated with SHH. Type of test: cell-based, mouse. As for the experimental part:
It was therefore investigated whether CK2 regulates Brd4-mediated transactivation of the Gli promoters. Chromatin immunoprecipitation (ChIP) was performed in NIH3T3s stimulated with SHH using anti-Brd4 antibodies, followed by quantitative PCR (qPCR) of regions flanking the transcription start sites within the Gli1 and Gli2 promoters.
Wildtype CD1-Elite (Charles River strain 482) P7 mice were randomized to control or treatment groups then given two injections of DMSO (control) or TBB (30 mg/kg) q12h×2. Mice were sacrificed and GNPs were isolated as described in “GNP isolation”. Chomatin immunoprecipitation was performed as previously described. GNPs were cross-linked in 1% formaldehyde for 10 minutes at RT then fixation was stopped by adding 2.5M glycine for 10 minutes. Samples were washed and stored at −80 until all samples were collected. Crosslinked cells were later thawed on ice, incubated in chilled RIPA for 10 min and sonicated 7×15 min. To prepare blocking beads, 60 uL/sample of protein G beads (Roche 11719416001) were incubated with 5% BSA on a rocker at 4 degrees for at least 1 h. […] ChIP and input DNA was quantified using Qubit DS DNA HS assay as per manufacturer's protocol (ThermoFisher Q32851). […] Library was quantified via Qubit DS DNA HS assay and library quality was determined using an Agilent 2100 Bioanalyzer. […]

Test [3] deals with Gli2 binding at Gli target genes in GNPs. As to the kind of experiment: H3K27ac and Gli2 Chipseq in GNPs purified from TBB-injected P7 mice. Type of test: in vivo, mouse. The settings on record: two injections of TBB (30 mg/kg) over 18 h. As for the experimental part:
Brd4 occupancy at both Gli1 and Gli2 promoters was blocked by the addition of TBB (FIG. 3e). Given that Brd4's primary role as a reader of H3K27ac histone modifications, whether the effect of TBB on Gli target genes correlated with H3K27ac in GNP on a genome-wide scale was next examined. GNPs were purified from P7 mice following two injections of TBB over an 18 h period. Chipseq using H3K27ac and Gli2 antibodies were performed and Gli target genes were binned into either ‘high’ or low H3K27ac′ groups. […] For example, Gli1 had low H3K27ac in GNPs but high H3K27ac in NIH 3T3's. In contrast, Gli2 and Ptch both had high H3K27ac marks in both GNPs and NIH 3T3's.
Wildtype CD1-Elite (Charles River strain 482) P7 mice were randomized to control or treatment groups then given two injections of DMSO (control) or TBB (30 mg/kg) q12h×2. Mice were sacrificed and GNPs were isolated as described in “GNP isolation”. Chomatin immunoprecipitation was performed as previously described. GNPs were cross-linked in 1% formaldehyde for 10 minutes at RT then fixation was stopped by adding 2.5M glycine for 10 minutes. […] ChIP and input DNA was quantified using Qubit DS DNA HS assay as per manufacturer's protocol (ThermoFisher Q32851). […] Library was quantified via Qubit DS DNA HS assay and library quality was determined using an Agilent 2100 Bioanalyzer. […]

Test [4] has as its system Medulloblastoma cell lines (MB53, MB55 and MB21 cells). As to the kind of experiment: Acquired resistance in medulloblastoma cell lines. Type of test: cell-based, mouse. The conditions noted are these: TBB 50 uM. As for the experimental part:
Medulloblastoma cell lines (MB53, MB55 and MB21 cells) were cultured in Neurobasal (Life Technologies 10888-022)+B27 supplement (Invitrogen 17504044)+DMSO (0.1%), CX-4945 (10 uM) or TBB (50 uM). […] Primer sequences are provided in supplemental table 5.

In test [5] the test system is GNP proliferation / cerebellum. As to the kind of experiment: CK2 inhibition in developing mouse (cerebellar development). Type of test: in vivo. The conditions noted are these: mice injected with TBB between P3-P7 (30 mg/kg IP bid). As for the experimental part:
The role of CK2 in cerebellar development was next investigated by injecting mice with the CK2 inhibitor TBB between P3-P7 (FIG. 2e).
Math1/nGFPtransgenic mice^8 were treated with DMSO or TBB (30 mg/kg IP bid) (EMD 218697) from […] then sacrificed 6 h following their final treatment. Brains were dissected, fixed in 4% PFA overnight then transferred into 20% sucrose for 24 h. Sections were mounted in O.C.T and sectioned at 20 μm then air-dried for 20 min prior to storing at −20° C. for up to 2 months. Sections were blocked in 0.2% triton X-100 and 2% goat serum diluted in sterile PBS for 1 h at RT. Primary antibodies used were: anti-NeuN Ab (1:200, COT: 2459079, EMD Millipore), anti-Tag1 Ab (1:100, antibody derived in the Scott lab) and TUNEL staining as per manufacturers instructions (Roche In situ Cell Death Detection Kit, cat. no. 1 684 809). All sections were incubated in primary antibody overnight at 4° C. and counter-stained with Hoechst33258 (final concentration 1 μl/ml in PBS) at RT for 10 min. Images were taken on a Leica TCS SP8 confocal microscope. Images were randomized and all measurements (length, width, Atoh-1, Tag1, TUNNEL staining) were performed by a blinded collaborator. Cerebellar folia length was compared between matched sections of control and treated mice by measuring the maximal length from the mid-base to the tip of the culmun (lobule 4/5). Culmen width was measured […] from the base of the folia between lobules 5 and 6. Prism statistical analysis software was used (GraphPad Software, CA) to calculate significance as determined by two-tailed T-tests.

Take `Brc1c(Br)c(Br)c2[nH]nnc2c1Br` [TBB, 4,5,6,7-tetrabromo-2H-benzotriazole]: in test [1], the Gli1 transcript levels entry is “no change”, the Gli2 transcript levels result is given as “effective at decreasing” and the Ptch transcript levels result is “effective at decreasing”. In addition, in test [2], the “Brd4 occupancy at Gli1 promoter” value is recorded as “blocked” and the “Brd4 occupancy at Gli2 promoter” value is listed as “blocked”. Moreover, in test [3], the “Gli binding at 'high' H3K27ac marked Gli target genes compared to low H3K27ac marked genes” value is recorded as “statistically significant decrease”. Moreover, in test [4], the “surviving cells after 2 weeks of culture with drug” value is “MB55 TBB treated (50 uM) cells remained”. Also, in test [5], the GNP-dependent foliary width entry was “decrease”, the apoptosis result is “no significant change”, the cerebellar size entry is given as “decrease” and the foliary length result was “no significant change”. Further, in test [5], the “number of ATOH-1 positive proliferating GNPs” value is reported as “decrease” and the rate of differentiation result is listed as “no significant change”.
